These are literature values, as cited in patent publication US7780990B2, “Combination therapeutic compositions and method of use” (priority 2005, dated 2010).

For this data set the following is noted: intravenous infusion 30 g over 30 min, patients with type II diabetes.

Each structure is given as a SMILES string.

Consider `C[N+](C)(C)CC(=O)O` [betaine, glycine betaine], for which the blood pressure entry was “reduces blood pressure” and the haemodynamic functions entry is “improves haemodynamic functions”.
